According to paper PMC10433847, “The Plasmodium Lactate/H^+ Transporter PfFNT Is Essential and Druggable In Vivo” (Antimicrobial Agents and Chemotherapy, 2023):

Target: T1, PfFNT V196L (Plasmodium falciparum, UniProt O77389, V196L)
T1 sequence (O77389 1-309 V196L): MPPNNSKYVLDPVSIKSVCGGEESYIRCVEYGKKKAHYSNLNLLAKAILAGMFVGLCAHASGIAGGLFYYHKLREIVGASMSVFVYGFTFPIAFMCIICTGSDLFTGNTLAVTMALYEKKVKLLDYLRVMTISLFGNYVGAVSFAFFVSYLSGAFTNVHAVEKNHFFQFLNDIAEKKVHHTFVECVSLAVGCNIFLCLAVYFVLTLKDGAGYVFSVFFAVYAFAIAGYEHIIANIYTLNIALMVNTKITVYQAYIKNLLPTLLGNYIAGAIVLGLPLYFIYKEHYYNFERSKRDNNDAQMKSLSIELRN
Type: cell-based
Details: pH 6.8; read-out: IC50, inhibition of 14C-lactate transport

**Q.** `O=C(/C=C(\O)C(F)(F)C(F)(F)F)c1cccnc1` [BH267.meta] was tested. Which IC50 did it give?
**A.** 850 ± 50 nM

**Q.** With `COc1ccc2c(c1)OC(O)(C(F)(F)C(F)(F)F)CC2=O` (centres unmarked) [MMV007839] as the compound, how does the IC50 read?
**A.** 730 ± 70 nM
